These results are taken from patent publication US6472348B1, “Pyridone derivatives and herbicides” (Kumiai Chemical Industry Co., Ltd., priority 1996, dated 2002).

Common to all, as to format: in vivo
Design in all cases: scale not given here
Holding throughout (details): 21st day after application

The subject of data set [1] is green foxtail (Se). As to the kind of experiment: Test Example 5: crop plant selectivity by upland field soil treatment (wheat), herbicidal effects. The gist of the method: (§1)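 Upland soil treatment test: crop and weed species sown in sand-filled pots and covered with soil before compound application. Visual scoring of weed control and wheat injury 21 days post-application, plants kept in a greenhouse, using a standard rating scale.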

The test system of data set [2] is pale smartweed (Po). Described as above. The gist of the method:
as §1

Data set [3] relates to slender amaranth (Am). The description is as above. The gist of the method: as §1
Data set [4] has as its system green foxtail (Se). Nature of the data set: Test Example 6: crop plant selectivity by upland field soil treatment (soybean), herbicidal effects. The gist of the method: (§2)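 Pre-emergence soil treatment; sand-filled pots, seeds sown then soil-covered; greenhouse culture; visual rating of weed control and soybean injury on day 21 post-application per standard scale.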
Data set [5] deals with China jute (Ab). The description is as above. The gist of the method:
as §2

Data set [6] deals with pale smartweed (Po). The description is as above. The gist of the method: as §2
Data set [7] relates to common lambsquarters (Ch). The data set is described as above. The gist of the method: as §2
In data set [8] the test system is slender amaranth (Am). The data set is described as above. The gist of the method: as §2
In data set [9] the test system is corn (Ze). Nature of the data set: Test Example 7: crop plant selectivity by upland field soil treatment (corn), phytotoxicity. The gist of the method: (§3)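 Greenhouse pot test: scores for herbicidal effect and corn phytotoxicity were given 21 days after soil treatment, against set rating standards. Crop and weed species (foxtail, smartweed, amaranth, lambsquarters, China jute) were sown together in sand and covered with soil beforehand.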

Data set [10] concerns slender amaranth (Am). Nature of the data set: Test Example 7: crop plant selectivity by upland field soil treatment (corn), herbicidal effects. The gist of the method: as §3

As to `C#CC(C)Oc1cc(-c2cn(C)c(C(F)(F)F)cc2=O)c(F)cc1Cl` (racemic) [Compound 6-10], the “Herbicidal effects Se” value in data set [1] (dose 1.6 g ai/10a) and in data set [4] (dose 1.6 g ai/10a) was 4 throughout. Further, the “Herbicidal effects Po” value in [2] (dose 1.6 g ai/10a) and in [6] (dose 1.6 g ai/10a) was 5 throughout. In addition, the “Herbicidal effects Am” value in data set [3] (dose 1.6 g ai/10a) and in data set [8] (dose 1.6 g ai/10a) was 5 each time. For the same compound, the “Herbicidal effects Ab” value in [5] (dose 1.6 g ai/10a) is reported as 4. In addition, the “Herbicidal effects Ch” value in [7] (dose 1.6 g ai/10a) is on record as 5.
Take `COc1cc(-c2ccc(C(F)(F)F)n(C)c2=O)c(F)cc1Cl` [1-15]: in data set [9] (dose 1.6 g ai/10a), the “Phytotoxicity Ze” value amounted to 1. Moreover, the “Herbicidal effects Se” value in data set [1] (dose 1.6 g ai/10a) and in [4] (dose 1.6 g ai/10a) was 5 throughout. Besides, the “Herbicidal effects Po” value in [2] (dose 1.6 g ai/10a) and in data set [6] (dose 1.6 g ai/10a) was 5 each time. Also, the “Herbicidal effects Am” value in [3] (dose 1.6 g ai/10a), in data set [8] (dose 1.6 g ai/10a) and in [10] (dose 1.6 g ai/10a) was 5 each time. The “Herbicidal effects Ab” value in data set [5] (dose 1.6 g ai/10a) amounted to 5. The “Herbicidal effects Ch” value in data set [7] (dose 1.6 g ai/10a) was 5.
As for `C=CCOc1cc(-c2ccc(C(F)(F)F)n(C)c2=O)c(F)cc1Cl` [1-16], the “Phytotoxicity Ze” value in data set [9] (dose 1.6 g ai/10a) amounted to 0; in data set [9] (dose 6.3 g ai/10a), 1. Also, the “Herbicidal effects Se” value in data set [1] (dose 1.6 g ai/10a), in [1] (dose 6.3 g ai/10a) and in data set [4] (dose 1.6 g ai/10a) was 5 each time. For the same compound, the “Herbicidal effects Po” value in data set [2] (dose 1.6 g ai/10a), in [2] (dose 6.3 g ai/10a) and in data set [6] (dose 1.6 g ai/10a) was 5 in each case. Also, the “Herbicidal effects Am” value in [3] (dose 1.6 g ai/10a), in data set [3] (dose 6.3 g ai/10a), in [8] (dose 1.6 g ai/10a), in data set [10] (dose 1.6 g ai/10a) and in [10] (dose 6.3 g ai/10a) was 5 throughout. For the same compound, the “Herbicidal effects Ab” value in data set [5] (dose 1.6 g ai/10a) was determined as 5. Besides, in [7] (dose 1.6 g ai/10a), the “Herbicidal effects Ch” value is listed as 5.
As to `C#CCOc1cc(-c2ccc(C(F)(F)F)n(C)c2=O)c(F)cc1Cl` [1-18], the “Phytotoxicity Ze” value in [9] (dose 1.6 g ai/10a) was 1; in data set [9] (dose 6.3 g ai/10a), 2. The “Herbicidal effects Se” value in data set [1] (dose 1.6 g ai/10a) and in data set [4] (dose 1.6 g ai/10a) was 5 throughout. Further, the “Herbicidal effects Po” value in data set [2] (dose 1.6 g ai/10a) and in data set [6] (dose 1.6 g ai/10a) was 5 throughout. The “Herbicidal effects Am” value in data set [3] (dose 1.6 g ai/10a), in data set [8] (dose 1.6 g ai/10a), in [10] (dose 1.6 g ai/10a) and in data set [10] (dose 6.3 g ai/10a) was 5 in each case. Besides, the “Herbicidal effects Ab” value in data set [5] (dose 1.6 g ai/10a) was found to be 5. Further, the “Herbicidal effects Ch” value in data set [7] (dose 1.6 g ai/10a) came out at 5.
`Cn1c(C(F)(F)F)ccc(-c2cc(OCC#N)c(Cl)cc2F)c1=O` [1-25]: the “Phytotoxicity Ze” value in data set [9] (dose 6.3 g ai/10a) is given as 1. Besides, the “Herbicidal effects Se” value in data set [4] (dose 6.3 g ai/10a) was found to be 5. Further, the “Herbicidal effects Ab” value in data set [5] (dose 6.3 g ai/10a) was 5. For the same compound, the “Herbicidal effects Po” value in data set [6] (dose 6.3 g ai/10a) is on record as 5. In data set [7] (dose 6.3 g ai/10a), the “Herbicidal effects Ch” value is on record as 5. Further, the “Herbicidal effects Am” value in data set [8] (dose 6.3 g ai/10a) and in data set [10] (dose 6.3 g ai/10a) was 5 throughout.
In the case of `C#CCOc1cc(-c2ccc(C(F)(F)F)n(C)c2=O)c(Cl)cc1Cl` [1-30], the “Phytotoxicity Ze” value is recorded as 1 in [9] (dose 1.6 g ai/10a) and 2 in [9] (dose 6.3 g ai/10a). In addition, the “Herbicidal effects Se” value in data set [1] (dose 1.6 g ai/10a) and in [4] (dose 1.6 g ai/10a) was 5 each time. Further, the “Herbicidal effects Po” value in data set [2] (dose 1.6 g ai/10a) and in data set [6] (dose 1.6 g ai/10a) was 5 each time. Besides, the “Herbicidal effects Am” value in data set [3] (dose 1.6 g ai/10a), in [8] (dose 1.6 g ai/10a), in data set [10] (dose 1.6 g ai/10a) and in data set [10] (dose 6.3 g ai/10a) was 5 throughout. Besides, the “Herbicidal effects Ab” value in data set [5] (dose 1.6 g ai/10a) came out at 5. In addition, the “Herbicidal effects Ch” value in [7] (dose 1.6 g ai/10a) is on record as 5.
With `CC(C)Sc1cc(-c2ccc(C(F)(F)F)n(C)c2=O)c(F)cc1Cl` [1-43], the “Phytotoxicity Ze” value in [9] (dose 6.3 g ai/10a) is given as 1. Moreover, the “Herbicidal effects Se” value in [1] (dose 6.3 g ai/10a) and in data set [4] (dose 6.3 g ai/10a) was 5 throughout. Moreover, the “Herbicidal effects Po” value in [2] (dose 6.3 g ai/10a) and in data set [6] (dose 6.3 g ai/10a) was 5 throughout. In addition, the “Herbicidal effects Am” value in data set [3] (dose 6.3 g ai/10a), in [8] (dose 6.3 g ai/10a) and in data set [10] (dose 6.3 g ai/10a) was 5 in each case. Besides, the “Herbicidal effects Ab” value in data set [5] (dose 6.3 g ai/10a) was determined as 4. In data set [7] (dose 6.3 g ai/10a), the “Herbicidal effects Ch” value is 5.
Turning to `C#CCSc1cc(-c2ccc(C(F)(F)F)n(C)c2=O)c(F)cc1Cl` [1-44], the “Phytotoxicity Ze” value in data set [9] (dose 6.3 g ai/10a) is on record as 1. In addition, the “Herbicidal effects Se” value in data set [1] (dose 6.3 g ai/10a) and in data set [4] (dose 6.3 g ai/10a) was 5 in each case. The “Herbicidal effects Po” value in data set [2] (dose 6.3 g ai/10a) and in [6] (dose 6.3 g ai/10a) was 5 in each case. For the same compound, the “Herbicidal effects Am” value in data set [3] (dose 6.3 g ai/10a), in data set [8] (dose 6.3 g ai/10a) and in [10] (dose 6.3 g ai/10a) was 5 in each case. Moreover, the “Herbicidal effects Ab” value in [5] (dose 6.3 g ai/10a) worked out at 5. Moreover, the “Herbicidal effects Ch” value in [7] (dose 6.3 g ai/10a) is given as 5.
As to `CCOC(=O)c1cc(-c2ccc(C(F)(F)F)n(C)c2=O)c(F)cc1Cl` [1-65], the results for the “Phytotoxicity Ze” value in data set [9] (dose 1.6 g ai/10a) and in data set [9] (dose 6.3 g ai/10a) were 1 and 2, respectively. In addition, the “Herbicidal effects Se” value in data set [1] (dose 1.6 g ai/10a), in [1] (dose 6.3 g ai/10a), in data set [4] (dose 1.6 g ai/10a) and in [4] (dose 6.3 g ai/10a) was 5 each time. For the same compound, the “Herbicidal effects Po” value in [2] (dose 1.6 g ai/10a), in data set [2] (dose 6.3 g ai/10a), in [6] (dose 1.6 g ai/10a) and in data set [6] (dose 6.3 g ai/10a) was 5 in each case. In addition, the “Herbicidal effects Am” value in [3] (dose 1.6 g ai/10a), in data set [3] (dose 6.3 g ai/10a), in data set [8] (dose 1.6 g ai/10a), in data set [8] (dose 6.3 g ai/10a), in [10] (dose 1.6 g ai/10a) and in [10] (dose 6.3 g ai/10a) was 5 throughout. In addition, the “Herbicidal effects Ab” value in data set [5] (dose 1.6 g ai/10a) and in data set [5] (dose 6.3 g ai/10a) was 5 each time. The “Herbicidal effects Ch” value in data set [7] (dose 1.6 g ai/10a) and in data set [7] (dose 6.3 g ai/10a) was 5 throughout.
